Measured values reported in article PMC7672424 (Nucleic Acids Research, 2020).

Experiments:
[1] = tested on: TTA (DNA, G4) GGGTTAGGGTTAGGGTTAGGG; test: CD melting; conditions: 50 mM K+; 10 mM Tris-HCl pH 7.4; 5 µM DNA, 20 µM compound
[2] = tested on: 19AT (DNA, duplex) ACGTCGATTATAGACGAGC/GCTCGTCTATAATCGACGT; test: CD melting; conditions: 50 mM K+; 10 mM Tris-HCl pH 7.4; 5 µM DNA, 20 µM compound
c-KIT1 = test: CD melting, DNA stabilization; assay type: binding; conditions: 5 µM DNA, 20 µM BMPQ-1, 10 mM Tris-HCl, 50 mM KCl, pH 7.4
Method: CD studies were performed on a Chirascan circular dichroism spectrophotometer (Jasco, Easton, MD, USA). A quartz cuvette with a 1 mm path length was used to record the spectra over a wavelength range of 220–320 nm with a 1 nm bandwidth. All the samples were prepared in buffer containing 10 mM Tris–HCl pH 7.4, 100 mM KCl. To ensure the concentrations of G-quadruplex units to be 20 μM, multiple G-quadruplexes forming oligonucleotides with different concentrations were used (TTA (G1) 20 μM, TTA45 (G2) 10 μM, TTA69 (G3) 6.67 μM, TTA93 (G4) 5 μM, TTA117 (G5) 4 μM, TTA141 (G6) 3.33 μM). The DNA samples were heated at 95°C for 5 min and cooled down slowly to room temperature. 20, 40 and 60 μM BMPQ-1 were mixed with DNAs separately. Melting curves were measured at 295 nm and the range of temperature was 4–95°C.

Duplex = test: CD melting, DNA stabilization; assay type: binding; conditions: 5 µM DNA (19AT), 20 µM BMPQ-1, 10 mM Tris-HCl, 50 mM KCl, pH 7.4
Method: Figure S2. Normalized CD thermal melting curves of DNAs in the absence or presence of BMPQ-1 under K+ conditions. (A) TTA69, (B) TTA45, (C) TTA, (D) c-KIT1, (E) TBA, (F) duplex DNA 19AT. The DNA concentration was 5 µM, and BMPQ-1 was 10 µM or 20 µM. All measurements were carried out in the buffer with 10 mM Tris-HCl (pH 7.4), 50 mM KCl. […]

A549 = test: Cell cytotoxicity assay (CCK8); assay type: cell-based, human; conditions: Homo sapiens, A549; CCK8, 48 h treatment
Method: (§1) The cell growth effect of BMPQ-1 against different cell lines were tested via measuring the quantity of living cells using the Cell Counting Kit-8 (CCK8) (DOJINDO, Japan) according to the instruction. Cells were seeded in a 96-well plate (5 × 10^3 cells/well) and grown for 24 h for attachment. Then the cells were treated with various concentrations of BMPQ-1 and incubated at 37°C with 5% CO2 for 48 h. After incubation, the old medium was discarded followed by adding fresh medium containing 10% FBS in DMEM. Then 100 μl CCK-8 (10% in grow medium) was added into each well, and the cells were further incubated for 1 h. The optical density (OD) was detected at 450 nm by an automated microplate reader (Bio-Rad). The IC50 values were derived from the curves of the mean percentage of survival against the drug concentration. All the experiments were performed in triplicate.
(§2) A Cell Counting Kit-8 (CCK8) (DOJINDO, Japan) was employed to evaluate the cytotoxicity of BMPQ-1 on human alveolar basal epithelial cancer cell line (A549), human hepatocellular carcinoma cancer cell line (HepG2), human gastric cancer cell line (MGC-803), human colon adenocarcinoma (HT29), human normal liver Cells (HL-7702).

HT29 = test: Cell cytotoxicity assay (CCK8); assay type: cell-based, human; conditions: Homo sapiens, HT-29; CCK8, 48 h treatment
Method: as §1, §2

HepG2 = test: Cell cytotoxicity assay (CCK8); assay type: cell-based, human; conditions: Homo sapiens, HepG2; CCK8, 48 h treatment
Method: as §1, §2

MGC-803 = test: Cell cytotoxicity assay (CCK8); assay type: cell-based, human; conditions: Homo sapiens, MGC-803; CCK8, 48 h treatment
Method: as §1, §2

[3] = tested on: human normal liver cells (HL-7702); test: Cell cytotoxicity assay (CCK8); assay type: cell-based; conditions: L02, CCK8, 48 h treatment
Method: as §1, §2

A549 cells = test: Cell cycle analysis by flow cytometry (PI); assay type: cell-based, human; conditions: A549, 3 μM, 24 h; control 10.4%
Method: A549 cells treated with BMPQ-1 were harvested and washed in PBS and fixed with 70% ethanol at 4°C overnight. Then, the cells were centrifuged and re-suspended in a staining solution (50 μg/mL propidium iodide (PI), 75 KU/ml RNase A in PBS) for 30 min at room temperature in the dark. The cells were analyzed by flow cytometer (BD FacsAria, USA). For each analysis, 2.0 × 10^4 events were collected.
Figure S9. BMPQ-1 induced A549 cell cycle arrest. (A) The cell cycle analysis of A549 cells after 24 h treatment with BMPQ-1. The cells were collected and stained with propidium iodide (PI). (B) Percentage of A549 cells in different phases of the cell cycle. […]
different from the control. […]

[4] = tested on: Tel26 (DNA, G4) AAAGGGTTAGGGTTAGGGTTAGGGAA; test: CD titration; conditions: 100 mM K+; 10 mM Tris-HCl pH 7.4; 265 nm peak decreased
[5] = tested on: TTA43 (DNA, G4) GGGTTAGGGTTAGGGTTAGGGTGGGTTAGGGTTAGGGTTAGGG; test: fluorescence titration; conditions: 100 mM K+ (KCl) plus potassium phosphate; 10 mM K2HPO4/KH2PO4 pH 7.0; 3 µM compound, DNA 0-10 µM; weaker than TTA45
[6] = tested on: TTA51/T3 (DNA, G4) GGGTTAGGGTTAGGGTTAGGGTTATTATTAGGGTTAGGGTTAGGGTTAGGG; test: fluorescence titration; conditions: 100 mM K+ (KCl) plus potassium phosphate; 10 mM K2HPO4/KH2PO4 pH 7.0; 3 µM compound, DNA 0-10 µM; weaker than TTA45
[7] = tested on: c-KIT2 (DNA, G4) GGGCGGGCGCGAGGGAGGGG; test: ligand fluorescence enhancement; conditions: 100 mM K+ (KCl) plus potassium phosphate; 10 mM K2HPO4/KH2PO4 pH 7.0; 3 µM compound, 4 µM DNA; enhancement below 3-fold
[8] = tested on: VEGF (DNA, G4) GGGAGGGTTGGGGTGGG; test: ligand fluorescence enhancement; conditions: 100 mM K+ (KCl) plus potassium phosphate; 10 mM K2HPO4/KH2PO4 pH 7.0; 3 µM compound, 4 µM DNA; enhancement below 3-fold

## Cc1ccc(Cn2cc3c(-c4ccc5c(c4)OCO5)nnc-3c3cc4c(cc32)OCO4)cc1 [BMPQ-1]
[1]
  ΔTm: 8.4 °C
[2]
  ΔTm: 1.8 °C
c-KIT1
  ΔTm (°C) c-KIT1: 6.6 °C
Duplex
  ΔTm (°C) Duplex: 1.8 °C
A549
  IC50: 1460 ± 160 nM
HT29
  IC50: 1400 ± 60 nM
HepG2
  IC50: 2140 ± 260 nM
MGC-803
  IC50: 2360 ± 480 nM
[3]
  IC50: 4380 ± 390 nM
A549 cells
  percentage of G2/M phase: 17.8%
[4]
  binding: yes
[5]
  binding: yes
[6]
  binding: yes
[7]
  binding: weak
[8]
  binding: weak
